Data: the SangsterLogP compilation

Q: For `CN1Cc2c(C(=O)OCCF)ncn2-c2ccc(F)cc2C1=O`, which logP is on record?
A: 0.93

Q: Which logP does the source give for `CCN1CCC[C@H]1CNC(=O)c1cc(I)cc(OC)c1OC` here?
A: 2.73

Q: For `CNCC(O)CCN1c2ccccc2N(c2ccccc2)S1(=O)=O` (stereo not given), which logP is on record?
A: 2.55

Q: With `CCCn1c(=O)c2[nH]c(C3CCCC3)nc2n(CCCF)c1=O` as the molecule, how does the logP read?
A: 2.83

Q: For `CCC(C)NC(=O)c1cc2ccccc2c(-c2ccccc2Cl)n1` (stereo not given), which logP is on record?
A: 3.25

Q: Which logP does the source give for `COc1cc2c(cc1OC)CN(CCc1ccc(NC(=O)c3cccc4c(=O)c5cccc(OC)c5[nH]c34)cc1)CC2` here?
A: 4.82

Q: Which logP does the source give for `COC(=O)C1C(c2ccc(I)cc2)CC2CCC1N2C` (stereo not given) here?
A: 2.13

Q: With `CCN1CCCC1CNC(=O)c1cc(Br)cc(OC)c1OC` (stereo in doubt) as the molecule, how does the logP read?
A: 2.37

Q: Which logP does the source give for `Oc1ccccc1OC(c1ccccc1)C1CNCCO1` (stereo not given) here?
A: 1.92

Q: With `Cn1c2c(c3ccccc31)C[C@@]1(O)[C@@H]3Cc4ccc(O)c5c4[C@@]1(CCN3CC1CC1)[C@H]2O5` as the molecule, how does the logP read?
A: 4.28
